# Measurements taken from US20080051387A1, “TETRAHYDROPYRIDO[3,4-D]PYRIMIDINES AND RELATED ANALOGUES” (priority 2006, published 2008).
# Target: T1, chimeric human H3 receptor (Homo sapiens, UniProt Q9Y5N1)
# T1 construct: rat Galpha-i2 (Gnai2, rat); made in house; host or cells: Sf9 insect cells (baculovirus); P2 membranes
# Assay: Chimeric human H3 receptor screening GTP binding assay (inhibition of histamine-stimulated GTP-gamma35S binding, Example 8)
# Assay type: biochemical
# Settings: 1 h; assay described in Example 8; symbol "!" in column headed Ki; read-out: Ki ("!": percent inhibition of agonist-induced GTP-gammaS binding to H3)
# Procedure, shortened: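 Compound tested at 4 μM against 1 μM histamine stimulation; 125 pM GTP-gamma35S binding measured by filtration and scintillation after 60 min at room temperature. Membranes from Sf9 cells expressing chimeric human H3 plus G-protein subunits, in Tris pH 7.4/NaCl/MgCl2/GDP buffer; values are % inhibition after nonspecific subtraction.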
# T1 sequence (Q9Y5N1 with tags, fused parts or gaps): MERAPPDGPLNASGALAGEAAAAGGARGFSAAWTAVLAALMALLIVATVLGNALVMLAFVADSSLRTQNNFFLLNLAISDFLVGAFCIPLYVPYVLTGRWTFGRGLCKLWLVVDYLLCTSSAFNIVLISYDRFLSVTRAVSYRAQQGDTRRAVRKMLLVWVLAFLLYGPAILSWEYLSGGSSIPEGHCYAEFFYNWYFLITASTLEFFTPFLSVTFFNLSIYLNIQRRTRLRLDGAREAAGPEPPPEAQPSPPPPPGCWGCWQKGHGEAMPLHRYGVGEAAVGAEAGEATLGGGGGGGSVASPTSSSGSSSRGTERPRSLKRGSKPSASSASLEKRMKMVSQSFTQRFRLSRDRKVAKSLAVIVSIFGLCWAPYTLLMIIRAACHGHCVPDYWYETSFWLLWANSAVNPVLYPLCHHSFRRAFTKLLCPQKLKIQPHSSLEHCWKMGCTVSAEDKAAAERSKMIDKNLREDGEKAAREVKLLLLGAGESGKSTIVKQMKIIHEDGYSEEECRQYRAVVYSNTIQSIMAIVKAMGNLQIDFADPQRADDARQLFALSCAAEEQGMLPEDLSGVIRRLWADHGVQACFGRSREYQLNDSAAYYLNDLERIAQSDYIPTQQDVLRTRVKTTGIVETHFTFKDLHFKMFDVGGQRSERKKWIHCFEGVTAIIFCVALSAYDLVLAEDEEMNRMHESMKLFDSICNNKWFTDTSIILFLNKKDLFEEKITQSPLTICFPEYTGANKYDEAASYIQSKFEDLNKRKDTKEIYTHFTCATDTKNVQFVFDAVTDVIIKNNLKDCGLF
row,SMILES,inhibition at 4 µM [%]
1,"O=C(c1ccc(F)c(F)c1)N1CCc2cnc(N3CCN(C4CCC4)CC3)nc2CC1 [Compound 390, 2-(4-cyclobutylpiperazin-1-yl)-7-(3,4-difluorobenzoyl)-6,7,8,9-tetrahydro-5H-pyrimido[4,5-d]azepine]",≥ 90
2,"CCCOc1ncccc1C(=O)N1CCc2cnc(N3CCN(C4CCC4)CC3)nc2CC1 [Compound 545, 2-(4-cyclobutylpiperazin-1-yl)-7-[(2-propoxypyridin-3-yl)carbonyl]-6,7,8,9-tetrahydro-5H-pyrimido[4,5-d]azepine]",≥ 90
3,"O=C(c1ccc(OCC(F)(F)F)nc1)N1CCc2cnc(N3CCN(C4CCC4)CC3)nc2CC1 [Compound 474, 2-(4-cyclobutylpiperazin-1-yl)-7-{[6-(2,2,2-trifluoroethoxy)pyridin-3-yl]carbonyl}-6,7,8,9-tetrahydro-5H-pyrimido[4,5-d]azepine]",≥ 90
4,"Cc1nc(C)c(C(=O)N2CCc3cnc(N4CCN(C5CCC5)CC4)nc3CC2)s1 [Compound 525, 2-(4-cyclobutylpiperazin-1-yl)-7-[(2,4-dimethyl-1,3-thiazol-5-yl)carbonyl]-6,7,8,9-tetrahydro-5H-pyrimido[4,5-d]azepine]",≥ 90
5,"COc1ccc(Cl)cc1C(=O)N1CCc2cnc(N3CCN(C4CCC4)CC3)nc2CC1 [Compound 420, 7-(5-chloro-2-methoxybenzoyl)-2-(4-cyclobutylpiperazin-1-yl)-6,7,8,9-tetrahydro-5H-pyrimido[4,5-d]azepine]",≥ 90
6,"Cc1ccc(C(=O)N2CCc3cnc(N4CCN(C5CCC5)CC4)nc3CC2)cc1Br [Compound 400, 7-(3-bromo-4-methylbenzoyl)-2-(4-cyclobutylpiperazin-1-yl)-6,7,8,9-tetrahydro-5H-pyrimido[4,5-d]azepine]",≥ 90
7,"O=C(c1ccc(F)c(Cl)c1)N1CCc2cnc(N3CCN(C4CCC4)CC3)nc2CC1 [Compound 393, 7-(3-chloro-4-fluorobenzoyl)-2-(4-cyclobutylpiperazin-1-yl)-6,7,8,9-tetrahydro-5H-pyrimido[4,5-d]azepine]",≥ 90
8,"O=C(Cc1ccc2ccccc2c1)N1CCc2cnc(N3CCN(C4CCC4)CC3)nc2CC1 [Compound 522, 2-(4-cyclobutylpiperazin-1-yl)-7-(2-naphthylacetyl)-6,7,8,9-tetrahydro-5H-pyrimido[4,5-d]azepine]",≥ 90
9,"O=C(c1cc(C(F)(F)F)cc(C(F)(F)F)c1)N1CCc2cnc(N3CCN(C4CCC4)CC3)nc2CC1 [Compound 402, 7-[3,5-bis(trifluoromethyl)benzoyl]-2-(4-cyclobutylpiperazin-1-yl)-6,7,8,9-tetrahydro-5H-pyrimido[4,5-d]azepine]",≥ 90
10,"O=C(Cc1ccc(-c2ccccc2)cc1)N1CCc2cnc(N3CCN(C4CCC4)CC3)nc2CC1 [Compound 518, 7-(biphenyl-4-ylacetyl)-2-(4-cyclobutylpiperazin-1-yl)-6,7,8,9-tetrahydro-5H-pyrimido[4,5-d]azepine]",≥ 90
11,"CSc1ccc(CC(=O)N2CCc3cnc(N4CCN(C5CCC5)CC4)nc3CC2)cc1 [Compound 519, 2-(4-cyclobutylpiperazin-1-yl)-7-{[4-(methylthio)phenyl]acetyl}-6,7,8,9-tetrahydro-5H-pyrimido[4,5-d]azepine]",≥ 90

# Same assay, conditions: 1 h; assay of Example 8; symbol "!" in column headed Ki; read-out: percent inhibition of agonist-induced GTP-gammaS binding to H3
row,SMILES,inhibition at 4 µM [%]
1,"COc1cccc(CN2CCc3cnc(N4CCN(C5CCC5)CC4)nc3CC2)c1OC [Compound 260, 2-(4-cyclobutylpiperazin-1-yl)-7-(2,3-dimethoxybenzyl)-6,7,8,9-tetrahydro-5H-pyrimido[4,5-d]azepine]",≥ 90
2,"COc1ccc(CC(=O)N2CCc3cnc(N4CCN(C5CCC5)CC4)nc3CC2)cc1OC [Compound 281, 2-(4-cyclobutylpiperazin-1-yl)-7-[(3,4-dimethoxyphenyl)acetyl]-6,7,8,9-tetrahydro-5H-pyrimido[4,5-d]azepine]",≥ 90
3,"O=C(Cc1c(F)cccc1F)N1CCc2cnc(N3CCN(C4CCC4)CC3)nc2CC1 [Compound 291, 2-(4-cyclobutylpiperazin-1-yl)-7-[(2,6-difluorophenyl)acetyl]-6,7,8,9-tetrahydro-5H-pyrimido[4,5-d]azepine]",≥ 90
4,"CCOc1ccc(C(=O)N2CCc3cnc(N4CCN(C5CCC5)CC4)nc3CC2)cc1 [Compound 368, 2-(4-cyclobutylpiperazin-1-yl)-7-(4-ethoxybenzoyl)-6,7,8,9-tetrahydro-5H-pyrimido[4,5-d]azepine]",≥ 90
5,"Cc1noc(C)c1C(=O)N1CCc2cnc(N3CCN(C4CCC4)CC3)nc2CC1 [Compound 201, 2-(4-cyclobutylpiperazin-1-yl)-7-[(3,5-dimethylisoxazol-4-yl)carbonyl]-6,7,8,9-tetrahydro-5H-pyrimido[4,5-d]azepine]",≥ 90
6,"CCCN1CCc2cnc(N3CCN(C4CCC4)CC3)nc2CC1 [Compound 247, 2-(4-cyclobutylpiperazin-1-yl)-7-propyl-6,7,8,9-tetrahydro-5H-pyrimido[4,5-d]azepine]",≥ 90
7,"CCN1CCc2cnc(N3CCN(C4CCC4)CC3)nc2CC1 [Compound 245, 2-(4-cyclobutylpiperazin-1-yl)-7-ethyl-6,7,8,9-tetrahydro-5H-pyrimido[4,5-d]azepine]",≥ 90
8,"Cc1ccc(C(=O)N2CCc3cnc(N4CCN(C5CCC5)CC4)nc3CC2)cc1C [Compound 360, 2-(4-cyclobutylpiperazin-1-yl)-7-(3,4-dimethylbenzoyl)-6,7,8,9-tetrahydro-5H-pyrimido[4,5-d]azepine]",≥ 90
9,"COc1cccc(CC(=O)N2CCc3cnc(N4CCN(C5CCC5)CC4)nc3CC2)c1OC [Compound 312, 2-(4-cyclobutylpiperazin-1-yl)-7-[(2,3-dimethoxyphenyl)acetyl]-6,7,8,9-tetrahydro-5H-pyrimido[4,5-d]azepine]",≥ 90
10,"Cc1cc(C(=O)N2CCc3cnc(N4CCN(C5CCC5)CC4)nc3CC2)nn1C [Compound 203, 2-(4-cyclobutylpiperazin-1-yl)-7-[(1,5-dimethyl-1H-pyrazol-3-yl)carbonyl]-6,7,8,9-tetrahydro-5H-pyrimido[4,5-d]azepine]",≥ 90
11,"O=C(c1ccc2ccccc2c1)N1CCc2cnc(N3CCN(C4CCC4)CC3)nc2CC1 [Compound 361, 2-(4-cyclobutylpiperazin-1-yl)-7-(2-naphthoyl)-6,7,8,9-tetrahydro-5H-pyrimido[4,5-d]azepine]",≥ 90
12,"c1cc(N2CCCC2)ccc1CN1CCc2cnc(N3CCN(C4CCC4)CC3)nc2CC1 [Compound 267, 2-(4-cyclobutylpiperazin-1-yl)-7-(4-pyrrolidin-1-ylbenzyl)-6,7,8,9-tetrahydro-5H-pyrimido[4,5-d]azepine]",≥ 90

# Same assay, conditions: symbol ! in Ki; test compound 4 μM, 1 μM histamine; read-out: percent inhibition of agonist-induced GTP-gammaS binding to H3
row,SMILES,inhibition at 4 µM [%]
1,"CC(C)c1ccc(C(C)N2CCc3c(ncnc3N3CCN(C4CCC4)CC3)C2)cc1 (stereo not shown) [Compound 115, 4-(4-cyclobutylpiperazin-1-yl)-7-[1-(4-isopropylphenyl)ethyl]-5,6,7,8-tetrahydropyrido[3,4-d]pyrimidine]",≥ 90
2,"c1nc2c(c(N3CCN(C4CCC4)CC3)n1)CCN(Cc1ccc(N3CCOCC3)nc1)CC2 [Compound 155, 4-(4-cyclobutylpiperazin-1-yl)-7-[(6-morpholin-4-ylpyridin-3-yl)methyl]-6,7,8,9-tetrahydro-5H-pyrimido[4,5-d]azepine]",≥ 90
3,"Cc1cccc(CN2CCc3c(ncnc3N3CCN(C4CCC4)CC3)C2)n1 [Compound 74, 4-(4-cyclobutylpiperazin-1-yl)-7-[(6-methylpyridin-2-yl)methyl]-5,6,7,8-tetrahydropyrido[3,4-d]pyrimidine]",≥ 90
4,"O=C(C1CCCCCC1)N1CCc2c(ncnc2N2CCN(C3CCC3)CC2)C1 [Compound 56, 4-(4-cyclobutylpiperazin-1-yl)-7-(cycloheptylcarbonyl)-5,6,7,8-tetrahydropyrido[3,4-d]pyrimidine]",≥ 90
5,"Fc1cccc(CN2CCc3ncnc(N4CCN(C5CCC5)CC4)c3CC2)c1 [Compound 146, 4-(4-cyclobutylpiperazin-1-yl)-7-(3-fluorobenzyl)-6,7,8,9-tetrahydro-5H-pyrimido[4,5-d]azepine]",≥ 90
6,"Fc1cccc(CN2CCc3nc(N4CCN(C5CCC5)CC4)ncc3C2)c1 [Compound 612, 2-(4-cyclobutylpiperazin-1-yl)-6-(3-fluorobenzyl)-5,6,7,8-tetrahydropyrido[4,3-d]pyrimidine]",≥ 90
7,"CCCCCCN1CCc2c(ncnc2N2CCN(C3CCC3)CC2)C1 [Compound 85, 4-(4-cyclobutylpiperazin-1-yl)-7-hexyl-5,6,7,8-tetrahydropyrido[3,4-d]pyrimidine]",≥ 90
8,"CC(C)CC(C)N1CCc2c(ncnc2N2CCN(C3CCC3)CC2)C1 (stereo not shown) [Compound 116, 4-(4-cyclobutylpiperazin-1-yl)-7-(1,3-dimethylbutyl)-5,6,7,8-tetrahydropyrido[3,4-d]pyrimidine]",≥ 90
9,"CCn1cncc1CN1CCc2ncnc(N3CCN(C4CCC4)CC3)c2CC1 [Compound 177, 4-(4-cyclobutylpiperazin-1-yl)-7-[(1-ethyl-1H-imidazol-5-yl)methyl]-6,7,8,9-tetrahydro-5H-pyrimido[4,5-d]azepine]",≥ 90
10,"Fc1ccc(CN2CCc3c(ncnc3N3CCN(C4CCC4)CC3)C2)cc1 [Compound 68, 4-(4-cyclobutylpiperazin-1-yl)-7-(4-fluorobenzyl)-5,6,7,8-tetrahydropyrido[3,4-d]pyrimidine]",≥ 90
11,"CCCCC(C)N1CCc2c(ncnc2N2CCN(C3CCC3)CC2)C1 (stereo not shown) [Compound 119, 4-(4-cyclobutylpiperazin-1-yl)-7-(1-methylpentyl)-5,6,7,8-tetrahydropyrido[3,4-d]pyrimidine]",≥ 90
